In PubChem BioAssay (NCI):
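All cell lines were grown in 96-well plates and treated with compound for 48 hours. Definition used: TGI = concentration required for complete inhibition of growth.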

How the values were obtained:
Test in all cases: growth of human tumour cells (NCI), 48 h
[1] = test system: CCRF-CEM leukemia
[2] = test system: DU-145 prostate
[3] = test system: EKVX NSCLC
[4] = test system: HT29 colon
[5] = test system: IGROV1 ovarian
[6] = test system: KM12 colon
[7] = test system: MDA-N
[8] = test system: OVCAR-3 ovarian
[9] = test system: SK-MEL-2 melanoma
[10] = test system: SK-MEL-5 melanoma

Structure (SMILES)	TGI [1]	TGI [2]	TGI [3]	TGI [4]	TGI [5]	TGI [6]	TGI [7]	TGI [8]	TGI [9]	TGI [10]
N#C/C(N)=C(\C#N)NC(=O)C(=O)N/C(C#N)=C(\N)C#N	> 100 µM	> 100 µM	> 100 µM	> 100 µM	> 100 µM	> 100 µM	> 100 µM	> 100 µM	> 100 µM	> 100 µM
CCOC(=O)CCC(NC(=O)c1ccc(OCc2ccc3nc(-c4ccccc4)c(Cl)nc3c2)cc1)C(=O)OCC (stereo not given)	> 31.6 µM	> 31.6 µM	> 31.6 µM	> 31.6 µM	> 31.6 µM	> 31.6 µM	> 100 µM	> 31.6 µM	> 100 µM	> 31.6 µM
CCCCCCCCCCNC(=O)CCC(NC(=O)c1ccc(N(C)Cc2cnc3nc(N)nc(N)c3n2)cc1)C(=O)NCCCCCCCCCC (stereo not given)	5.9 µM	> 70.2 µM	> 78.3 µM	35.2 µM	20.1 µM	16.2 µM	21.9 µM	26.8 µM	30.4 µM	12.6 µM
O=C1C(c2c(O)[nH]c3ccc(Br)cc23)=Nc2ccccc21	> 100 µM	27.2 µM	20.2 µM	15 µM	13 µM	50.5 µM	34.8 µM	45.8 µM	28.3 µM	18.6 µM
CC(C)(C)OC(=O)N1C(c2cccnc2)=CC[C@H]2C3CC=C(c4cccnc4)[C@@]3(C)CC[C@@H]21 (stereo not given in full)	25.8 µM	19.2 µM	10.3 µM	11.8 µM	16.4 µM	28.8 µM	9.2 µM	14.2 µM	8.39 µM	4.18 µM
CO/N=C(\C)CCC#Cc1ccccc1C(=O)OC	> 10 µM	> 10 µM	> 10 µM	> 10 µM	> 10 µM	> 10 µM	> 10 µM	> 10 µM	> 10 µM	> 10 µM
CCC(C#N)NCc1cccc(CNC(C#N)CC)c1 (stereo not given)	> 100 µM	> 100 µM	> 100 µM	> 100 µM	> 100 µM	> 100 µM	> 100 µM	> 100 µM	> 100 µM	> 100 µM
N#Cc1cnc(N)nc1NCC1(CO)CC(CCc2ccccc2)C1 (stereo not given)	> 100 µM	> 100 µM	> 100 µM	> 100 µM	> 100 µM	> 100 µM	> 100 µM	> 100 µM	> 100 µM	> 100 µM
O=C1C(Cl)=C(Nc2ccc(S(=O)(=O)Nc3ccccn3)cc2)C(=O)c2ccccc21	> 25.5 µM	25.9 µM	31.7 µM	22.3 µM	23.1 µM	32.4 µM	13.9 µM	15.6 µM	15.3 µM	11.4 µM
